{"source": "paper PMC6706161", "about": "“A surface plasmon resonance-based method for monitoring interactions between G protein-coupled receptors and interacting proteins” (Journal of Biological Methods, 2016)", "target": "T1, S100B (Bos taurus, UniProt P02638)", "T1 construct": "S100B, purified from bovine brain; purchased Merck Millipore 559290; host or cells: bovine brain (tissue-purified)", "T1 sequence (P02638 2-92 limits assumed)": "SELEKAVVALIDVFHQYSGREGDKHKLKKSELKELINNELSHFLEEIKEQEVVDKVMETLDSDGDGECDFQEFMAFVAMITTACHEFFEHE", "assay": "SPR (Biacore 3000) steady-state binding of S100B to immobilized peptide h5-HT7_IC3", "settings": "95% CI [3.93, 6.71], peptide amine-coupled to CM5 chip (about 1200 RU), mock-immobilized reference surface, analyte S100B purified from bovine brain, 0.38 to 12 µM (two experiments) and 1.25 to 40 µM (third), duplicates, running buffer 10 mM HEPES, 150 mM NaCl, 4 mM CaCl2, 0.005% Tween-20, pH 7.5, 25 °C, one-site binding model, three experiments, read-out: Kd (dissociation constant, affinity)", "description": "• Custom peptides (> 95% pure) can be obtained from a number of commercial sources. In our hands, peptides from Selleck Chemicals (Houston, TX) have worked well. • S100B, purified from bovine brain (Cat. # 559290; Merck Millipore, Darmstadt, Germany) • Sensor Chip CM5 (single: Cat. # BR-1003-99; pack of three chips: Cat. # BR-1000-12; GE Healthcare) • Plastic Vials, Ø 7 mm; pack of 1000 vials (Cat. # BR-1002-12; GE Healthcare) • Rubber Caps, type 3; pack of 600 caps (Cat. # BR-1005-02; GE Healthcare) • Immobilization buffers: 10 mM sodium acetate, pH 4.0 (Cat. # BR-1003-49) and pH 4.5 (Cat. # BR-1003-50; GE Healthcare); 1 × 50 ml each • HBS-EP (Cat. # BR100188, 6 x 200 ml; GE Healthcare) • NaOH (Cat. # S8045; Sigma-Aldrich, Stockholm, Sweden) • DMSO (Cat. # D2650; Sigma-Aldrich) • Amine Coupling Kit (contains EDC, NHS and 1.0 M ethanolamine-HCl pH 8.5; Cat. # BR100050; GE Healthcare) • HEPES (Cat. # H3375; Sigma-Aldrich) • NaCl (Cat. # S7653; Sigma-Aldrich) • CaCl2 · 2H2O (Cat. # C8106; Sigma-Aldrich) • Tween-20 (Cat. # P1379; Sigma-Aldrich) • EDTA disodium salt (Cat. # E5134; Sigma-Aldrich) • Syringe filters, 0.2 µm pore size (Cat. # 83.1826.001; Sarstedt, Helsingborg, Sweden) • Bottle top filtration unit, 0.45 µm pore size (Cat. # 83.1823.100; Sarstedt)\nRunning buffer with Ca2+: 10 mM HEPES, 150 mM NaCl, 4 mM CaCl2, 0.005% Tween-20; pH 7.5. Store at 4 °C between experiments. […]", "note": "No end group written: not given here."}
{"sequence": "KFPGFPRVEPDSVIALNGIV [h5-HT7_IC3]", "values": [{"measurement": "Kd", "value": 5.32, "unit": "µM"}]}
